# System: P815
# Assay: Cytotoxicity against P815 tumor cell line
# Type: functional
# Details: Mus musculus, read-out: ID50 (the source's name)
row,SMILES,IC50
1,O=C([O-])C1OC(OC[C@H]2OC(n3cc(F)c(=O)[nH]c3=O)[C@H](O)[C@@H]2O)[C@H](O)[C@@H](O)[C@@H]1O.[Na+] (some centres not stated),6 µg/mL
2,Nc1nc(=O)n(C2O[C@H](CO[C@@H]3OC(C(=O)[O-])[C@@H](O)[C@H](O)[C@H]3O)[C@@H](O)[C@H]2O)cc1F.[Na+] (some centres not stated),6 µg/mL

# Source: ChEMBL document CHEMBL1121669, “Nucleosides. 114. 5'-O-Glucuronides of 5-fluorouridine and 5-fluorocytidine. Masked precursors of anticancer nucleosides” (1981)
